Data from patent US20240216401A1, “COMBINATION THERAPY BY USING AKR1C3-ACTIVATED COMPOUND WITH IMMUNE CHECKPOINT INHIBITOR” (OBI Pharma, Inc., priority 2021, published 2024).
Where “and” joins values, the source holds several entries; their conditions need not be identical. Equal values may be shown once.

Columns and labels:
Assay type in all cases: in vivo, Mus musculus
HepG2 tumor = assay: Example 1: tumor volume, tumor weight and TGI in HepG2 tumor bearing humanized mice
Description: (§1) Each group contains five mice. The human hepatocellular carcinoma cell line HepG2 were subcutaneously inoculated to the advanced immune deficiency mice. Total of 30 mice were included in this study.
2.2. […] The subcutaneous injection volume was […].
(§2) 3.1. […] The injection was performed using insulin syringe with the dosage of 10 mg/kg (Dosage of injection was changed to 20 mg/kg from Day 15) and injection volume of 10 mL/kg. […] The reference item was administered for G1. The procedure followed the standards of sample administration.
(§3) 3.2. The test item anti-hPD-L1 antibody or reference items were intraperitoneally injected to the mice on Day 8 after the inoculation of tumor cells. The injection was performed using insulin syringe with the dosage of 10 mg/kg (Dosage of injection was changed to 20 mg/kg from Day 15) and injection volume of 10 mL/kg. The test item anti-hPD-L1 was continuously administered on Day 8, 11, 15, 18, 22, 25, 29 and 32 for G4 and G6. The reference item was administered for G1. The procedure followed the standards of sample administration.
(§4) 3.3. […] The injection was performed using insulin syringe with the dosage of 1 mg/kg and injection volume of 5 mL/kg. […] The reference item was administered for G1. The procedure followed the standards of sample administration.
The measurement was performed from the next day of the inoculation. The tumor volumes were measured and recorded twice a week (Mon., Thur.). Tumor volume was calculated by ellipsoid equation according to the records ((major axis×minor axis×minor axis)×(π/6)).
Tumor volumes were used to calculate tumor growth inhibition (TGI) rates according to the following formula: TGI (%)=[1−(Ti−T0)/(Ci−C0)]×100, where Ti and Ci indicate the mean tumor volume in the treatment groups and vehicle group at the end of the experiment (Day 35). Whereas, T0 and C0 indicate the mean tumor volumes in the treatment group and vehicle group at the beginning of the experiment (Day 1).
(§5) Mice were sacrificed by CO2 euthanasia at the end of the study duration, and the connective tissue around tumor was resected. The tumor samples were then removed and weighed. The half tissue was fixed in 10% formaldehyde and then embedded in paraffin; the other half was prepared for the isolation of tumor-infiltrating lymphocytes (TILs).

[1] = Example 1: body weight and mortality of HepG2 tumor bearing humanized mice; conditions: OBI-3424 1 mg/kg IV, antibody 10 mg/kg IP (20 from Day 15)
Description: as §1, §2, §3, §4
The measurement was performed from the next day of the inoculation. The animal body weights were measured and recorded twice per week.

[2] = system: CD8^+ cytotoxic T cells (CTL) in tumor-infiltrating lymphocytes; assay: Example 1: flow cytometry, percentage of CTL cells in TILs
Description: as §5
(§6) The half of mouse tumors were dissected into smaller fragments using scalpels and then digested with a cocktail of collagenase, DNase I, and Hyaluronidase (Collagenase #C5138, DNase I #D5025, Hyaluronidase #H6254, SigmaAldrich) for at least 2 hours.
(§7) Cells were stained with the fluorescently conjugated surface antibodies and incubated for 30 minutes at 4° C., and then resuspended in staining buffer for flow cytometric analysis. Flow cytometry was done using a Navios EX Flow Cytometer (Beckman Coulter). Data were analyzed using the Kaluza Analysis Software (Beckman Coulter).

[3] = system: CD4^+ T helper cells in tumor-infiltrating lymphocytes; assay: Example 1: flow cytometry, percentage of TH cells in TILs; conditions: individual mice
Description: as §5, §6, §7

[4] = system: NK cells in tumor-infiltrating lymphocytes; assay: Example 1: flow cytometry, percentage of NK cells in TILs; conditions: individual mice
Description: as §5, §6, §7

[5] = system: PD-L1^+ cells in tumor-infiltrating lymphocytes; assay: Example 1: flow cytometry, percentage of PD-L1 cells in TILs; conditions: individual animal
Description: as §5, §6, §7

[6] = TILs, flow cytometer, individual mice
[7] = TILs, gate CD45^+CD8^+ cells, individual mice

anti-hPD-1: Anti-Human PD-1 antibody, Pembrolizumab, Merck & Co., Inc.
Tumor volume, Mean (HepG2 tumor; D 1, group mean, OBI-3424 1 mg/kg IV, antibody 10 mg/kg IP (20 from Day 15)): 354.80 mm^3
Tumor volume, Mean (HepG2 tumor; D 4, group mean, OBI-3424 1 mg/kg IV, antibody 10 mg/kg IP (20 from Day 15)): 269.37 mm^3
Tumor volume, Mean (HepG2 tumor; D 7, group mean, OBI-3424 1 mg/kg IV, antibody 10 mg/kg IP (20 from Day 15)): 301.61 mm^3
Tumor volume, Mean (HepG2 tumor; D 11, group mean, OBI-3424 1 mg/kg IV, antibody 10 mg/kg IP (20 from Day 15)): 339.50 mm^3
Tumor volume, Mean (HepG2 tumor; D 14, group mean, OBI-3424 1 mg/kg IV, antibody 10 mg/kg IP (20 from Day 15)): 393.76 mm^3
Tumor volume, Mean (HepG2 tumor; D 18, group mean, OBI-3424 1 mg/kg IV, antibody 10 mg/kg IP (20 from Day 15)): 735.09 mm^3
Tumor volume, Mean (HepG2 tumor; D 21, group mean, OBI-3424 1 mg/kg IV, antibody 10 mg/kg IP (20 from Day 15)): 880.07 mm^3
Tumor volume, Mean (HepG2 tumor; D 25, group mean, OBI-3424 1 mg/kg IV, antibody 10 mg/kg IP (20 from Day 15)): 947.95 mm^3
Tumor volume, Mean (HepG2 tumor; D 28, group mean, OBI-3424 1 mg/kg IV, antibody 10 mg/kg IP (20 from Day 15)): 1171.03 mm^3
Tumor volume, Mean (HepG2 tumor; D 32, group mean, OBI-3424 1 mg/kg IV, antibody 10 mg/kg IP (20 from Day 15)): 1366.17 mm^3
Tumor volume, Mean (HepG2 tumor; D 35, group mean (mean±SEM), OBI-3424 1 mg/kg IV, antibody 10 mg/kg IP (20 from Day 15)): 1613.37±338.07 mm^3 and 1613.37 mm^3
Tumor weight, Mean (HepG2 tumor; D 35, group mean, OBI-3424 1 mg/kg IV, antibody 10 mg/kg IP (20 from Day 15)): 1266.48 mg
mean tumor volume compared with vehicle (in words) (HepG2 tumor; Day 35, vs vehicle (G1), Student's t-test): No statistically significant difference
effect on tumor growth (conclusion in words) (HepG2 tumor; HepG2 humanized mouse model): no effect on tumor growth
TGI (HepG2 tumor; from mean tumor volumes Day 35 vs Day 1, relative to vehicle, OBI-3424 1 mg/kg IV, antibody 10 mg/kg IP (20 from Day 15)): −9.69%
Body Weight, Mean ([1]; Day 0, group mean): 22.84 g
Body Weight, Mean ([1]; Day 1, group mean): 22.47 g
Body Weight, Mean ([1]; Day 4, group mean): 23.47 g
Body Weight, Mean ([1]; Day 7, group mean): 23.48 g
Body Weight, Mean ([1]; Day 11, group mean): 23.90 g
Body Weight, Mean ([1]; Day 14, group mean): 23.94 g
Body Weight, Mean ([1]; Day 18, group mean): 24.30 g
Body Weight, Mean ([1]; Day 21, group mean): 23.59 g
Body Weight, Mean ([1]; Day 25, group mean): 23.42 g
Body Weight, Mean ([1]; Day 28, group mean): 22.52 g
Body Weight, Mean ([1]; Day 32, group mean): 22.55 g
Body Weight, Mean ([1]; Day 35, group mean): 22.77 g
CD8^+ cytotoxic T cells (CTL) population in tumors compared with vehicle (in words) ([2]; Example 1, TILs at sacrifice, flow cytometry): not observed
CD25^+ CTL cells (CD45^+CD8^+ CD25^+) Total % [2, 6]: 0.26% and 0.10% and 0.65% and 0.84% and 0.41%
CTL cells (CD45^+CD8^+) Total % [2, 6]: 9.30% and 6.22% and 21.30% and 11.17% and 24.91%
PD-1^+ CTL cells (CD45^+CD8^+ PD-1^+) Total % [2, 6]: 10.83% and 9.53% and 15.71% and 10.88% and 14.41%
CTL cells (CD45^+CD8^+) CD45^+ Gated % ([2]; TILs, gate CD45^+ cells, individual mice): 36.10% and 34.75% and 75.47% and 53.85% and 55.75%
CD25^+ CTL cells (CD45^+CD8^+ CD25^+) CTL Gated % [2, 7]: 2.80% and 1.53% and 3.05% and 7.48% and 1.65%
PD-1^+ CTL cells (CD45^+CD8^+ PD-1^+) CTL Gated % [2, 7]: 89.36% and 84.37% and 66.70% and 66.59% and 57.38%
CD25^+ CTL cells (CD45^+CD8^+ CD25^+) Cell count ([2]; TILs, individual mice): 0.79 ×10^5 and 0.35 ×10^5 and 0.62 ×10^5 and 1.08 ×10^5 and 0.28 ×10^5
CTL cells (CD45^+CD8^+) Cell count ([2]; TILs, individual mice): 28.27 ×10^5 and 21.83 ×10^5 and 20.30 ×10^5 and 14.41 ×10^5 and 16.91 ×10^5
PD-1^+ CTL cells (CD45^+CD8^+ PD-1^+) Cell count ([2]; TILs, individual mice): 32.92 ×10^5 and 33.45 ×10^5 and 14.97 ×10^5 and 14.04 ×10^5 and 9.78 ×10^5
CD25^+ TH cells (CD45^+CD4^+ CD25^+) Total % ([3]; flow cytometer): 0.71% and 0.67% and 0.82% and 1.28% and 0.45%
PD-1^+ TH cells (CD45^+CD4^+ PD-1^+) Total % ([3]; flow cytometer): 20.78% and 11.99% and 9.21% and 11.61% and 15.49%
TH cells (CD45^+CD4^+) Total % ([3]; flow cytometer): 19.18% and 11.07% and 9.76% and 11.17% and 18.23%
TH cells (CD45^+CD4^+) CD45^+ Gated % ([3]; gate CD45^+ cells): 74.49% and 61.90% and 34.59% and 53.85% and 40.81%
CD25^+ TH cells (CD45^+CD4^+CD25^+) TH Gated % ([3]; gate CD45^+CD4^+ cells): 3.70% and 6.05% and 8.35% and 11.42% and 2.44%
PD-1^+ TH cells (CD45^+CD4^+ PD-1^+) TH Gated % ([3]; gate CD45^+CD4^+ cells): 96.11% and 90.08% and 83.23% and 82.55% and 85.27%
CD25^+ TH cells (CD45^+CD4^+ CD25^+) Cell count [3]: 2.16 ×10^5 and 2.35 ×10^5 and 0.78 ×10^5 and 1.65 ×10^5 and 0.31 ×10^5
PD-1^+ TH cells (CD45^+CD4^+ PD-1^+) Cell count [3]: 63.17 ×10^5 and 42.08 ×10^5 and 8.78 ×10^5 and 14.98 ×10^5 and 10.52 ×10^5
TH cells (CD45^+CD4^+) Cell count [3]: 58.31 ×10^5 and 38.86 ×10^5 and 9.30 ×10^5 and 14.41 ×10^5 and 12.38 ×10^5
CD16^+ NK cells (CD45^+CD56^+ CD16^+) Total % ([4]; flow cytometer): 0.41% and 0.32% (2×) and 0.44% and 0.79%
NK cells (CD45^+CD56^+) Total % ([4]; flow cytometer): 2.91% and 1.08% and 3.01% and 1.93% and 4.76%
PD-1^+ NK cells (CD45^+CD56^+PD-1^+) Total % ([4]; flow cytometer): 2.67% and 1.13% and 2.36% and 1.46% and 1.78%
NK cells (CD45^+CD56^+) CD45^+ Gated % ([4]; gate CD45^+ cells): 12.27% and 6.34% and 12.96% and 9.57% and 12.69%
CD16^+ NK cells (CD45^+CD56^+ CD16^+) NK Gated % ([4]; gate CD45^+CD56^+ cells): 13.94% and 29.77% and 14.48% and 16.58% and 16.61%
PD-1^+ NK cells (CD45^+CD56^+PD-1^+) NK Gated % ([4]; gate CD45^+CD56^+ cells): 99.81% and 100.00% and 87.08% and 98.31% and 64.90%
CD16^+ NK cells (CD45^+CD56^+ CD16^+) Cell count [4]: 1.25 ×10^5 and 1.12 ×10^5 and 0.42 ×10^5 and 0.41 ×10^5 and 0.54 ×10^5
NK cells (CD45^+CD56^+) Cell count [4]: 8.85 ×10^5 and 3.79 ×10^5 and 2.87 ×10^5 and 2.49 ×10^5 and 3.23 ×10^5
PD-1^+ NK cells (CD45^+CD56^+PD-1^+) Cell count [4]: 8.12 ×10^5 and 3.97 ×10^5 and 2.25 ×10^5 and 1.88 ×10^5 and 1.21 ×10^5
CD45^+ cells Cell count (×10^6) [5]: 7.83 ×10^6 and 6.28 ×10^6 and 2.69 ×10^6 and 2.68 ×10^6 and 3.03 ×10^6
CD45^+ cells Gated % [5]: 41.15% and 30.42% and 47.95% and 36.87% and 63.31%
CD45^+ cells Total % [5]: 25.75% and 17.89% and 28.22% and 20.74% and 44.68%
Total PD-L1^+ cells (PD-L1^+) Cell count (×10^5) [5]: 10.55 ×10^5 and 13.65 ×10^5 and 2.38 ×10^5 and 7.80 ×10^5 and 4.22 ×10^5
Total PD-L1^+ cells (PD-L1^+), Total % [5]: 3.47% and 3.89% and 2.50% and 6.05% and 6.21%
Total PD-L1^+ cells (PD-L1^+), Total cells Gated % [5]: 6.45% and 7.52% and 3.68% and 7.83% and 6.95%
Total cells Cell count (×10^6) [5]: 16.37 ×10^6 and 18.15 ×10^6 and 6.47 ×10^6 and 9.97 ×10^6 and 6.06 ×10^6
Total cells Gated % [5]: 53.84% and 51.71% and 67.88% and 77.26% and 89.23%
Total cells Total % [5]: 53.84% and 51.71% and 67.88% and 77.26% and 89.23%
